In the supplement of paper PMC10307832:

Tests used:
Test in all cases: relative viability (nuclei count vs DMSO), 5 days (fraction); higher = more cells survive
RERF-LC-KJ = test system: RERF-LC-KJ
Outline: (§1)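 Relative viability is defined as nuclei in treated wells over nuclei in vehicle wells. Duplicate plates were run and medians reported. Lung cancer cell lines in 1536-well plates were dosed by pin tool one day after seeding, with one drug or with a fixed anchor-drug dose plus five library-drug doses (not always all listed) in √10 steps, and nuclei were counted after 5 days.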

H3255 = test system: H3255
Outline: as §1

HCC-827 = test system: HCC-827
Outline: as §1

NCI-H2228 = test system: NCI-H2228
Outline: as §1

EKVX = test system: EKVX
Outline: as §1

NCI-H2405 = test system: NCI-H2405
Outline: as §1

HCC-15 = test system: HCC-15
Outline: as §1

NCI-H1734 = test system: NCI-H1734
Outline: as §1

NCI-H1975 = test system: NCI-H1975
Outline: as §1

NCI-H1755 = test system: NCI-H1755
Outline: as §1

PC-14 = test system: PC-14
Outline: as §1

NCI-H661 = test system: NCI-H661
Outline: as §1

NCI-H1355 = test system: NCI-H1355
Outline: as §1

CAL-12T = test system: CAL-12T
Outline: as §1

NCI-H322M = test system: NCI-H322M
Outline: as §1

NCI-H1650 = test system: NCI-H1650
Outline: as §1

LCLC-97TM1 = test system: LCLC-97TM1
Outline: as §1

NCI-H520 = test system: NCI-H520
Outline: as §1

LK-2 = test system: LK-2
Outline: as §1

PC-3 [JPC-3] = test system: PC-3 [JPC-3]
Outline: as §1

NCI-H1563 = test system: NCI-H1563
Outline: as §1

Structure (SMILES): O=c1cc(-c2cccc3c2Sc2ccccc2S3)oc(N2CCOCC2)c1 + C[C@@H](Oc1cc(-c2cnn(C3CCNCC3)c2)cnc1N)c1c(Cl)ccc(F)c1Cl [Crizotinib] (partner 1 µM)
- relative viability (RERF-LC-KJ; first compound 0.08 µM): 0.823
- relative viability (RERF-LC-KJ; first compound 0.253 µM): 0.922
- relative viability (RERF-LC-KJ; first compound 0.8 µM): 0.871
- relative viability (RERF-LC-KJ; first compound 2.53 µM): 0.948
- relative viability (RERF-LC-KJ; first compound 8 µM): 1.05
- relative viability (H3255; first compound 0.08 µM): 0.89
- relative viability (H3255; first compound 0.253 µM): 0.992
- relative viability (H3255; first compound 0.8 µM): 1.02
- relative viability (H3255; first compound 2.53 µM): 0.747
- relative viability (H3255; first compound 8 µM): 1.26
- relative viability (HCC-827; first compound 0.08 µM): 0.943
- relative viability (HCC-827; first compound 0.253 µM): 0.921
- relative viability (HCC-827; first compound 0.8 µM): 0.997
- relative viability (HCC-827; first compound 2.53 µM): 0.8
- relative viability (HCC-827; first compound 8 µM): 0.967
- relative viability (NCI-H2228; first compound 0.08 µM): 0.407
- relative viability (NCI-H2228; first compound 0.253 µM): 0.506
- relative viability (NCI-H2228; first compound 0.8 µM): 0.399
- relative viability (NCI-H2228; first compound 2.53 µM): 0.394
- relative viability (NCI-H2228; first compound 8 µM): 0.354
- relative viability (EKVX; first compound 0.08 µM): 0.896
- relative viability (EKVX; first compound 0.253 µM): 1.1
- relative viability (EKVX; first compound 0.8 µM): 0.971
- relative viability (EKVX; first compound 2.53 µM): 1.04
- relative viability (EKVX; first compound 8 µM): 1.04
- relative viability (NCI-H2405; first compound 0.08 µM): 0.831
- relative viability (NCI-H2405; first compound 0.253 µM): 0.887
- relative viability (NCI-H2405; first compound 0.8 µM): 0.832
- relative viability (NCI-H2405; first compound 2.53 µM): 0.759
- relative viability (NCI-H2405; first compound 8 µM): 0.853
- relative viability (HCC-15; first compound 0.08 µM): 0.952
- relative viability (HCC-15; first compound 0.253 µM): 0.934
- relative viability (HCC-15; first compound 0.8 µM): 1.01
- relative viability (HCC-15; first compound 2.53 µM): 0.857
- relative viability (HCC-15; first compound 8 µM): 0.827
- relative viability (NCI-H1734; first compound 0.08 µM): 0.686
- relative viability (NCI-H1734; first compound 0.253 µM): 0.802
- relative viability (NCI-H1734; first compound 0.8 µM): 0.9
- relative viability (NCI-H1734; first compound 2.53 µM): 0.872
- relative viability (NCI-H1734; first compound 8 µM): 0.672
- relative viability (NCI-H1975; first compound 0.08 µM): 1.01
- relative viability (NCI-H1975; first compound 0.253 µM): 1.02
- relative viability (NCI-H1975; first compound 0.8 µM): 0.922
- relative viability (NCI-H1975; first compound 2.53 µM): 0.837
- relative viability (NCI-H1975; first compound 8 µM): 0.98
- relative viability (NCI-H1755; first compound 0.08 µM): 0.961
- relative viability (NCI-H1755; first compound 0.253 µM): 0.974
- relative viability (NCI-H1755; first compound 0.8 µM): 0.937
- relative viability (NCI-H1755; first compound 2.53 µM): 0.878
- relative viability (NCI-H1755; first compound 8 µM): 0.85
- relative viability (PC-14; first compound 0.08 µM): 0.979
- relative viability (PC-14; first compound 0.253 µM): 1.13
- relative viability (PC-14; first compound 0.8 µM): 0.945
- relative viability (PC-14; first compound 2.53 µM): 0.899
- relative viability (PC-14; first compound 8 µM): 0.868
- relative viability (NCI-H661; first compound 0.08 µM): 1.15
- relative viability (NCI-H661; first compound 0.253 µM): 1.04
- relative viability (NCI-H661; first compound 0.8 µM): 1.13
- relative viability (NCI-H661; first compound 2.53 µM): 0.939
- relative viability (NCI-H661; first compound 8 µM): 0.958
- relative viability (NCI-H1355; first compound 0.08 µM): 1.08
- relative viability (NCI-H1355; first compound 0.253 µM): 1.16
- relative viability (NCI-H1355; first compound 0.8 µM): 1.04
- relative viability (NCI-H1355; first compound 2.53 µM): 1.06
- relative viability (NCI-H1355; first compound 8 µM): 0.98
- relative viability (CAL-12T; first compound 0.08 µM): 0.729
- relative viability (CAL-12T; first compound 0.253 µM): 0.686
- relative viability (CAL-12T; first compound 0.8 µM): 0.85
- relative viability (CAL-12T; first compound 2.53 µM): 0.6
- relative viability (CAL-12T; first compound 8 µM): 0.731
- relative viability (NCI-H322M; first compound 0.08 µM): 0.885
- relative viability (NCI-H322M; first compound 0.253 µM): 0.901
- relative viability (NCI-H322M; first compound 0.8 µM): 1.04
- relative viability (NCI-H322M; first compound 2.53 µM): 0.937
- relative viability (NCI-H322M; first compound 8 µM): 1.08
- relative viability (NCI-H1650; first compound 0.08 µM): 0.998
- relative viability (NCI-H1650; first compound 0.253 µM): 0.956
- relative viability (NCI-H1650; first compound 0.8 µM): 0.945
- relative viability (NCI-H1650; first compound 2.53 µM): 0.963
- relative viability (NCI-H1650; first compound 8 µM): 1.35
- relative viability (LCLC-97TM1; first compound 0.08 µM): 0.373
- relative viability (LCLC-97TM1; first compound 0.253 µM): 0.408
- relative viability (LCLC-97TM1; first compound 0.8 µM): 0.459
- relative viability (LCLC-97TM1; first compound 2.53 µM): 0.334
- relative viability (LCLC-97TM1; first compound 8 µM): 0.456
- relative viability (NCI-H520; first compound 0.08 µM): 0.447
- relative viability (NCI-H520; first compound 0.253 µM): 0.695
- relative viability (NCI-H520; first compound 0.8 µM): 0.976
- relative viability (NCI-H520; first compound 2.53 µM): 0.821
- relative viability (NCI-H520; first compound 8 µM): 0.821
- relative viability (LK-2; first compound 0.08 µM): 0.196
- relative viability (LK-2; first compound 0.253 µM): 0.224
- relative viability (LK-2; first compound 0.8 µM): 0.194
- relative viability (LK-2; first compound 2.53 µM): 0.231
- relative viability (LK-2; first compound 8 µM): 0.208
- relative viability (PC-3 [JPC-3]; first compound 0.08 µM): 0.983
- relative viability (PC-3 [JPC-3]; first compound 0.253 µM): 1.01
- relative viability (PC-3 [JPC-3]; first compound 0.8 µM): 1.03
- relative viability (PC-3 [JPC-3]; first compound 2.53 µM): 0.971
- relative viability (PC-3 [JPC-3]; first compound 8 µM): 1.02
- relative viability (NCI-H1563; first compound 0.08 µM): 0.93
- relative viability (NCI-H1563; first compound 0.253 µM): 0.758
- relative viability (NCI-H1563; first compound 0.8 µM): 0.792
- relative viability (NCI-H1563; first compound 2.53 µM): 0.804
- relative viability (NCI-H1563; first compound 8 µM): 0.887
